Measured values from the NIST ThermoML archive (doi:10.1016/j.jct.2014.10.021).

Test: mn = molality of the nth substance listed, in mol/kg
Conditions: 298.15 K, 101.33 kPa, Liquid, Alternating current cell with electrodes

CCCC[N+]1(C)CCCC1.O=S(=O)([O-])C(F)(F)C(F)(F)C(F)(F)C(F)(F)F [1-butyl-1-methylpyrrolidinium perfluorobutanesulfonate] + O
Conditions | electrical conductivity [S/m]
m1 = 0.004597 | 0.0233
m1 = 0.005016 | 0.0254
m1 = 0.005639 | 0.0279
m1 = 0.006033 | 0.0293
m1 = 0.006491 | 0.0311
m1 = 0.007025 | 0.0343
m1 = 0.007655 | 0.0363
m1 = 0.008405 | 0.0397
m1 = 0.00933 | 0.0447
m1 = 0.0105 | 0.0483
m1 = 0.012 | 0.0554
m1 = 0.01274 | 0.0584
m1 = 0.01401 | 0.0642
m1 = 0.01533 | 0.0697
m1 = 0.01608 | 0.0731
m1 = 0.01691 | 0.0769
m1 = 0.01784 | 0.0804

CCCCCC[n+]1ccn(C)c1.O=S(=O)([O-])C(F)(F)C(F)(F)C(F)(F)C(F)(F)F [1-methyl-3-hexylimidazolium perfluorobutanesulfonate] + O
Conditions | electrical conductivity [S/m]
m1 = 0.0006843 | 0.0038
m1 = 0.001003 | 0.0055
m1 = 0.001271 | 0.0072
m1 = 0.001953 | 0.0108
m1 = 0.002415 | 0.0133
m1 = 0.002944 | 0.0163
m1 = 0.003168 | 0.0174
m1 = 0.00367 | 0.0201
m1 = 0.004364 | 0.0235
m1 = 0.004701 | 0.0252
m1 = 0.005473 | 0.0291
m1 = 0.006118 | 0.0323
m1 = 0.006443 | 0.0339
m1 = 0.007009 | 0.0367
m1 = 0.007312 | 0.0382
m1 = 0.007666 | 0.04
m1 = 0.007936 | 0.0413
m1 = 0.008317 | 0.0431
m1 = 0.008657 | 0.0448
m1 = 0.009459 | 0.0484
m1 = 0.009734 | 0.0497
m1 = 0.01004 | 0.051
m1 = 0.01032 | 0.0523
m1 = 0.01057 | 0.0535
m1 = 0.01151 | 0.0567
m1 = 0.01188 | 0.0581
m1 = 0.01244 | 0.0611
m1 = 0.01292 | 0.0624
m1 = 0.01353 | 0.0644
m1 = 0.01416 | 0.0668
m1 = 0.01452 | 0.069

CCCC[N+](CCCC)(CCCC)CCCC.O=S(=O)([O-])C(F)(F)C(F)(F)C(F)(F)C(F)(F)F [tetrabutylammonium perfluorobutanesulfonate] + O
Conditions | electrical conductivity [S/m]
m1 = 0.002247 | 0.0136
m1 = 0.002283 | 0.0138
m1 = 0.002308 | 0.0139
m1 = 0.002329 | 0.014
m1 = 0.002356 | 0.0142
m1 = 0.002375 | 0.0143
m1 = 0.002407 | 0.0145
m1 = 0.002447 | 0.0147
m1 = 0.002477 | 0.0148
m1 = 0.002494 | 0.0149
m1 = 0.002516 | 0.015
m1 = 0.002534 | 0.0151

CCCCCCCCCCCCn1cc[n+](C)c1.O=S(=O)([O-])C(F)(F)C(F)(F)C(F)(F)C(F)(F)F [1-dodecyl-3-methylimidazolium perfluorobutanesulfonate] + O
Conditions | electrical conductivity [S/m]
m1 = 1.598e-05 | 0.00011
m1 = 2.066e-05 | 0.00016
m1 = 2.421e-05 | 0.00018
m1 = 2.925e-05 | 0.00022
m1 = 3.682e-05 | 0.0003
m1 = 4.977e-05 | 0.00041
m1 = 5.764e-05 | 0.00048
m1 = 7.583e-05 | 0.00063
m1 = 8.783e-05 | 0.0007
m1 = 0.0001043 | 0.00085
m1 = 0.0001122 | 0.00089
m1 = 0.0001213 | 0.00095
m1 = 0.000132 | 0.00101
m1 = 0.0001448 | 0.00109
m1 = 0.0001603 | 0.00118
m1 = 0.0001796 | 0.00129
m1 = 0.0001903 | 0.00136

CCCCCCCCn1cc[n+](C)c1.O=S(=O)([O-])C(F)(F)C(F)(F)C(F)(F)C(F)(F)F [1-methyl-3-octylimidazolium perfluorobutanesulfonate] + O
Conditions | electrical conductivity [S/m]
m1 = 0.0003013 | 0.0016
m1 = 0.0007028 | 0.0037
m1 = 0.001019 | 0.0054
m1 = 0.001249 | 0.0069
m1 = 0.00155 | 0.008
m1 = 0.001919 | 0.0102
m1 = 0.0022 | 0.0117
m1 = 0.002596 | 0.0136
m1 = 0.002912 | 0.0145
m1 = 0.003181 | 0.0157
m1 = 0.003623 | 0.017
m1 = 0.003988 | 0.0176
m1 = 0.004309 | 0.0183
m1 = 0.004701 | 0.0192
m1 = 0.005065 | 0.0202
m1 = 0.005333 | 0.0206
m1 = 0.005728 | 0.0209
